In series [1] the test system is phosphorylation of Akt in 4T1 cells. Description: Western blot assay of phospho AKT in cells. Format: cell-based, murine. As to the method: The protein was collected and protein lysates were electrophoresed. Then membranes were incubated with Phospho AKT, total AKT and actin antibodies overnight at 4° C. After appropriate amount of washing with TBST, membranes were incubated with horseradish peroxidase-conjugated secondary antibody for 1 hour. Detection was done using G-box (Syngene) and densitometric quantification was done by image J software. […] When cells were 70% confluent, they were incubated in serum free media for 6 hours. Then, free drug or equivalent amount of drug loaded nanoparticles were added in appropriate concentration in serum deprived media (1% FBS). […] Amount of protein was measured by […] and equal amount of protein lysates were electrophoresed on a 4-20% polyacrylamide gel, transferred to polyvinylidene difluoride membrane, and blocked in TBST-T with 5% dry milk. Then membranes were incubated in TBST with Phospho AKT (S473) (1:500 dilution), total AKT (1:1000 dilution), and actin (1:2000 dilution) antibodies (all antibodies from Cell Signalling Technology) overnight at 4° C. After appropriate amount of washing with TBST, membranes were incubated with horseradish peroxidase-conjugated secondary antibody for 1 hour. Detection was done using G-Box™ from Syngene and densitometric quantification was done by image J™ software.

Series [2] relates to phospho AKT, phospho mTOR, phospho 4EBP in 4T1 tumors. The series can be described thus: Western blot assay of in vivo 4T1 tumor samples. To be noted: single injection 5 mg/kg, 72 hours. Details: species or system BALB/c mice. The procedure:
For animal tissue, tumor stored in −80° C. were pulverized in a mortar and pestle using liquid nitrogen, then treated with RIPA buffer to extract the protein. Amount of protein was measured by BCA assay and equal amount of protein lysates were electrophoresed on a polyacrylamide gel, then transferred to polyvinylidene difluoride membrane, (BIO-RAD) and blocked in with 5% milk solution. Then membranes were incubated with appropriate concentration of primary antibody overnight at 4° C., followed by horseradish peroxidase-conjugated secondary antibody for 1 hour. Detection was done using G-box from SYNGENE and densitometric quantification was done by IMAGE-J software.
For animal tissue, tumor stored in −80° C. were pulverized in a mortar and pestle using liquid nitrogen, then treated with RIPA buffer to extract the protein. Amount of protein was measured by BCA assay and equal amount of protein lysates were electrophoresed on a polyacrylamide gel, then transferred to polyvinylidene difluoride membrane, (Bic-Rad) and blocked in with 5% milk scullion. Then membranes were incubated with appropriate concentration of primary antibody (all antibodies from Cell Signalling Technology) overnight at 4° C., followed by horseradish peroxidase-conjugated secondary antibody for 1 hour. Detection was done using G-box from Syngene and densitometric quantification was done by image J™ software.

Series [3] is described as follows: Insulin tolerance test using PI103-SNPs. To be noted: 5 mg/kg single dose, insulin 0.75 U/kg 1 hour later, glucose 45 min after insulin. In kind it is in vivo, mice (murine 4T1 breast cancer model). As to the method:
Random fed mice (murine 4T1 breast cancer model) were injected with a single dose of Empty nanoparticles (Control), Free PI-103 (5 mg/kg) and PI103-SNPs via tail vain injections. Freshly prepared Insulin solution (0.75 U/Kg) in 0.1 ml 0.9% NaCl was injected intraperitoneally to mice 1 hour after the drug administration. The blood glucose levels were measured before and 45 min after the insulin injections using glucometer.

Series [4] has as its system K-Ras^LSL/+/Pten^fl/fl ovarian cancer. Description: Efficacy study of PI103-SNPs in murine ovarian cancer tumor model. Format: in vivo, mice. The following applies: after 3 doses, 5 mg/kg. The procedure:
Ovarian adenocarcinomas were induced in genetically engineered K-Ras^LSL/+/Pten^fl/fl mice via intrabursal delivery of adenovirus-carrying Cre recombinase. Tumor cells were also engineered to express luciferase once activated by Adeno-Cre to make tumor imaging possible before and after drug treatment. Once mice developed medium to large tumors, they were placed into one of four treatment groups (vehicle, Free-PI-103 5 mg/kg, PI-103-SNP 5 mg/kg, and iRGD-PI103-SNP 5 mg/kg) and all drugs were administered via tail vein injection. Tumor imaging in vivo was performed using an 1VIS Lumina II Imaging System. Quantification of bioluminescence was achieved by using Living Image Software 3.1 (Caliper Life Sciences). Images were taken a day prior to initial treatment (day 0, baseline image), after 3 treatments, and 1 d after 5 treatments.
Ovarian adenocarcinomas were induced in genetically engineered K-ras isu+/Pten mice via intrabursal delivery of adenovirus-carrying Cre recombinase. Tumor cells were also engineered to express luciferase once activated by Adeno-Cre to make tumor imaging possible before and after drug treatment. […] Quantification of bioluminescence was achieved by using Living Image Software 3.1™ (Caliper Life Sciences). […]

The next series concerns PI3K. The following applies: cited from earlier work.

Molecules are shown by their SMILES. Entries after “also recorded” stand apart in the source; their conditions may differ.

As to `Oc1cccc(-c2nc(N3CCOCC3)c3oc4ncccc4c3n2)c1` [PI103], the “phosphorylation of AKT after transient exposure” value in series [1] (4 hours exposure, wash, followed to 48 hours) is reported as “rebound increase in phosphorylation of AKT”. For the same compound, the “basal phosphorylation of Akt” value in series [1] (equimolar PI103 (5 pM), continuous incubation, 48 hours) is listed as “inhibited basal phosphorylation of Akt even at 48 hours of continuous incubation”. Moreover, the “intratumoral Akt phosphorylation” value in series [2] was “intratumoral Akt phosphorylation was inhibited”. Besides, in series [3], the “blood glucose level after insulin injection” value is given as “only a minor decrease in blood glucose level”. In series [4], the tumor luciferase bioluminescence entry is listed as “significant tumor regression as compared to vehicle control”. Also, the PI3K inhibitory potency entry with PI3K was “excellent potency in the low nanomolar range; also recorded: more potent”.
